Test results: US20210156844A1, “TMEM16A Modulation for Diagnostic or Therapeutic Use in Pulmonary Hypertension (PH)” (Bayer Aktiengesellschaft, priority 2017, published 2021)

Experiments:
human PASMC = experiment: PASMC proliferation in vitro, [3H]-thymidine incorporation; type: cell-based; details: benzbromarone 30 μM; PDGF-BB 10 ng/ml; human donor PASMC
Description: Human PASMC were seeded on 96-well plates. Cells were serum-starved for 12 hours, then underwent a 30 min pre-treatment with benzbromarone (30 μM) or vehicle. After the pre-treatment, serum-free SMC Medium containing PDGF-BB (10 ng/ml, Sigma) and benzbromarone was applied. The proliferation was determined by [^3H]-thymidine incorporation (BIOTREND Chemikalien GmbH, Cologne, Germany) as an index of DNA synthesis, and detected with a scintillation counter (Wallac 1450 MicroBeta TriLux Liquid Scintillation Counter & Luminometer, PerkinElmer, Waltham Mass., USA). Each independent experiment was performed in five replicates using PASMC isolated from six different donor lungs.
In experiments using TMEM16A silencing, cells were first seeded on 6-well plates and transfected with TMEM16A siRNA or control non-silencing RNA as described above. Cells were re-seeded into 96-well plates 24 hours after transfection, starved for 12 hours, then the induction and measurement of proliferation was performed as detailed above.

hypoxia-exposed mice = experiment: Chronic hypoxia-induced mouse model of PH, slow-release pellets; type: in vivo
Source text: The experimental protocol is depicted in FIG. 12A. Male C57BL/6J mice (Charles River) at the age of 10 weeks were either placed into a hypoxic chamber (FiO2=0.1, n=16) for 4 weeks, or kept at normoxic conditions (control group, FiO2=0.21, n=8). According to the reports of Fagan et al. (Fagan, K A, et al. Am. J. Physiol. Lung Cell. Mol. Physiol. (2004) 287, L656-664) and Tuscherer et al. (Tuchscherer, H A, et al., J. Biomech. (2007) 40, 993-1001), a significant increase in the right ventricular systolic pressure (RVSP) and PA muscularization can be observed already after 14 days of hypoxia exposure. Therefore, mice subjected to hypoxia were randomized into two groups at the end of the second week. Eight mice received a subcutaneous slow-release pellet containing benzbromarone (Innovative Research of America, Sarasota Fla., USA) (HOX+BBR) and the other 8 mice received pellets with vehicle (HOX+Veh). The pellets ensured a stable blood concentration of the drug/vehicle over the next two weeks. At the end of week 4, all mice were subjected to in vivo hemodynamic measurements, followed by sacrifice and organ collection.
In mice, in vivo hemodynamics was performed under constant inhalation of 2% isoflurane/oxygen, using the closed chest technique through a small incision on the submandibular area. Body temperature was monitored and maintained at 37±1° C. A limb-lead ECG was recorded and the heart rate was kept constant to avoid changes in the sympathetic tone during the experiment. The right ventricle (RV) was catheterized via the right jugular vein using a 1.4 F Millar catheter (SPR-671, Millar, Houston Tex., USA) and right ventricular systolic pressure (RVSP) was measured continuously. Another catheter was inserted into the left carotid artery to monitor systemic blood pressure. After recording of stable values, the experiment was either continued with the assessment of the acute hemodynamic effects of benzbromarone (described above), or mice were sacrificed immediately for organ collection. […]
At the end of the hemodynamic measurements, animals were exsanguinated and the heart and lungs were isolated. […] Right ventricular hypertrophy was assessed by calculating the Fulton index, defined as RV weight/(LV+S weight).
Paraffin-embedded mouse and rat lung tissues were cut to 2 μm thin sections. Double immunohistochemical staining and quantification of the non-muscularized and muscularized arteries were made as previously described (Crnkovic, S, et al., Respir. Physiol. Neurobiol. (2011) 179, 342-345). […] Vessel remodeling in lung sections was quantified using semi-automated image analysis software (Visiopharm, Hoersholm, Denmark). […] The percentage of non-muscularized and muscularized pulmonary arteries, relative to the total number of pulmonary arteries, was calculated. […]

[1] = test system: monocrotaline treated rats; experiment: Monocrotaline treated rats, chronic treatment with slow-release pellets; type: in vivo, rat
Description: Male Sprague-Dawley rats (body weight: approx. 250 g, Charles River) received a single subcutaneous injection of monocrotaline (MCT, 60 mg/kg, n=16) or vehicle (control group, n=8). Since significant RVSP increase and PA muscularization had been detected as early as 12 days after the injection of MCT58, two weeks after monocrotaline treatment rats were randomly ordered into two groups. Subcutaneous slow-release pellets (Innovative Research of America) that contained either benzbromarone (MCT+BBR, n=8) or vehicle (MCT+Veh, n=8) were implanted. Four weeks after monocrotaline treatment all rats were subjected to echocardiography and in vivo hemodynamic measurements, thereafter they were sacrificed for organ collection.
Echocardiographic measurements were performed using a Vevo 770 High Resolution Imaging System with a 30 MHz RMV-707B scan head (VisualSonics, Toronto, Canada) as previously reported (Egemnazarov, B, et al., J. Am. Soc. Echocardiogr. (2015) 28, 828-843). Briefly, animals were mounted on a heated pad and kept under anaesthesia with isoflurane 0.8-1.2%. Chest hair was depilated and a layer of sonographic coupling gel was applied to the thorax. RV internal diameter (RVID) and free wall thickness (RVFW) from the left parasternal long axis view were measured in M-mode and 2-D modalities. RV outflow tract was visualized from the parasternal short axis view at the level of the aortic valve. From this view, pulse wave (PW) Doppler flow recordings of the pulmonary artery were obtained with the sample volume positioned at the tip of the pulmonary valve leaflets. Here, peak velocity, acceleration time (PAAT), and velocity-time integral (VTI) were measured. For every parameter, measurements were done for 4-5 cardiac cycles and results were averaged. Cardiac output was calculated as CO (mL/min)=(7.85×[RV outflow tract]2×pulmonary valve velocity-time integral×heart rate)/1,000. Cardiac index (CI) was obtained by normalizing cardiac output to body weight.
In rats, in vivo hemodynamic measurements were conducted as described above for the mice, with the exception that for the right ventricular and the systolic blood pressures, 2 F Millar Catheters (SPR-513 and SPR-320, respectively) were used.
At the end of the hemodynamic measurements, animals were exsanguinated and the heart and lungs were isolated. The right ventricle (RV) was dissected from the left ventricle+septum (LV+S) and both of them were weighed. Right ventricular hypertrophy was assessed by calculating the Fulton index, defined as RV weight/(LV+S weight).
Paraffin-embedded mouse and rat lung tissues were cut to 2 μm thin sections. Double immunohistochemical staining and quantification of the non-muscularized and muscularized arteries were made as previously described (Crnkovic, S, et al., Respir. Physiol. Neurobiol. (2011) 179, 342-345). Immunostained slides were scanned with an Olympus BX61VS microscope using the OlyVIA software (Olympus Austria GmbH, Vienna, Austria). Vessel remodeling in lung sections was quantified using semi-automated image analysis software (Visiopharm, Hoersholm, Denmark). Throughout the analysis, all samples were identified with number codes to blind the operator for the experimental group. The percentage of non-muscularized and muscularized pulmonary arteries, relative to the total number of pulmonary arteries, was calculated.
Serial sections from the same lungs were used to determine cell proliferation in the PA wall, as described by Zabini et al. (Zabini, D. et al., J. Cell. Mol. Med. (2015) 19, 1151-1161). Lung sections were labeled using a primary antibody against the proliferation marker PCNA (sc-7907, Santa Cruz). Immunostained slides were scanned with an Olympus BX61VS microscope equipped with the OlyVIA software (Olympus Austria GmbH, Vienna, Austria). Negative controls were performed with the omission of the primary antibody.

[2] = subcutaneous slow-release pellet weeks 2-4 of 4 weeks hypoxia, vs HOX+Veh
[3] = compared to the MCT+Veh group, week 4
[4] = slow-release pellet from two weeks after MCT, echocardiography at week 4

CCc1oc2ccccc2c1C(=O)c1cc(Br)c(O)c(Br)c1 [benzbromarone, (2-Ethyl-3-benzofuranyl)-(3,5-dibrom-4-hydroxyphenyl)ketone]
PDGF-BB induced PASMC proliferation (human PASMC): decrease | PCNA positive nuclei in the medial layer of the PA (hypoxia-exposed mice; hypoxic mice, lung sections (not shown)): reduced number | hypoxia-induced muscularization of pulmonary arteries (hypoxia-exposed mice; ratio of fully vs non-muscularised arteries compared to HOX+Veh): reversed | Fulton index (hypoxia-exposed mice; [2]): lowered | RVSP (hypoxia-exposed mice; [2]): lowered | PCNA positive nuclei in the medial layer of the PA ([1]; MCT treated rats, lung sections (not shown)): reduced number | number of fully muscularized arteries ([1]; MCT+BBR vs MCT+Veh): markedly reduced | number of non-muscularized arteries ([1]; MCT+BBR vs MCT+Veh): increased | RV hypertrophy (Fulton-index) [1, 3]: significantly decreased | RVSP [1, 3]: significantly decreased | MCT-induced decrease in cardiac index (CI) [1, 4]: completely reversed | MCT-induced decrease in pulmonary artery acceleration time (PAAT) [1, 4]: completely reversed | MCT-induced increase in right ventricular free wall thickness (RVFW Thickness) [1, 4]: completely reversed
